According to PubChem BioAssay AID1918956 (Molecular Pharmacology Branch, DTP, NCI, 2023):
Several values for one entry are separate records, joined by “and”; a condition that tells them apart may be missing. Equal entries are not always repeated.

Tested on: OVCAR-5 complex spheroids, viability
Experiment: Anticancer human tumor OVCAR-5 cell line growth inhibition;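 note: spheroids exposed to agents for seven days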;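 for viability, T/C: 100% = DMSO vehicle control wells viability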
Settings: for viability, T/C: stronger effect = lower value
Source text: Multicellular complex tumor spheroid response to LSD1 Inhibitor Iadademstat in combination with a variety of drugs and investigational agents in selected tumor cell lines
The current study was undertaken to assess response to LSD1 inhibitors in combination with standard-of-care drugs and investigational agents in solid tumor complex spheroid models as well as in the K-562 leukemia. Complex spheroids include a stromal component modeled by human endothelial cells (HUVEC) and fibroblasts modeled by human mesenchymal stem cells (MSCs). The concentration ranges selected for each drug and investigational agent were based upon clinically achievable concentrations if the clinical Cmax of the agent was known.
Compounds. The drugs and investigational agents used in this study are listed on Table 1. All of the agents used, including staurosporine (NSC755774) and gemcitabine (NSC613327), were obtained from the Developmental Therapeutics Program, NCI. FDA-approved anticancer drugs are available from the NCI at http://dtp.nci.nih.gov/branches/dscb/oncology_drugset_explanation.html. Drugs and investigational agents were >95% pure by proton nuclear magnetic resonance (NMR) and liquid chromatography/mass spectrometry (LC/MS). Stock solutions were prepared at 400x in DMSO, stored at -70 degrees C, and diluted in fresh medium prior to their use. The final concentration of DMSO in cell culture wells never exceeded 0.25% (v/v). The FDA-approved anticancer drug set is available from the Developmental Therapeutics Program at https://dtp.cancer.gov/organization/dscb/obtaining/available_plates.htm. All drugs and investigational agents were tested over a range starting from a high concentration at or near the clinical Cmax and decreasing in half-log increments. If the clinical Cmax for an agent had not been determined, the highest concentration tested was 10 microM.
Cell Lines. The patient-derived cancer cell (PDC) lines: 292921-168-R-J2-PDC, K24384-001-R-PDC, and 521955-158-R2-J5-PDC pancreatic carcinomas, 556581-035-R-J1 ovarian carcinoma, 324938-238-R-J1-PDC, 855422-203-R-J1-PDC and 883617-216-R-J1-PDC urothelial bladder carcinomas, 743489-274-T-PDC renal cell carcinoma, 138582-R-J1 Merkel cell tumor, K60290-347-R-J1 and K57222-313-R-J1-PDC glioblastomas, 653999-131-R-J2-PDC, LG0703-F948-PDC, and 349418-098-R-PDC non-small cell lung carcinomas, 885512-296-R-J2-PDC, 171881-019-R-J1-PDC breast carcinomas and 186277-243-T-J2-PDC and 233499-124-R-J2-PDC colon carcinomas were obtained from the NCI Patient-Derived Models Repository (PDMR, https://pdmr.cancer.gov). The established cell lines NCI/ADR-RES (RRID:CVCL_14520 and OVCAR-5 (RRID:CVCL_1628) ovarian carcinomas, 786-O (RRID:CVCL_1051) and A498 […] renal cell carcinoma, NCI-H211 (ATCC, cat. CRL-5824; RRID:CVCL_1529), NCI-H196 (ATCC, cat. CRL-5823, RRID:CVCL_1509), SW 1271 (ATCC, cat. CRL-2177, RRID:CVCL_1716) and NCI-H1876 (ATCC, cat. CRL-5902, RRID:CVCL_1503) small cell lung carcinomas, MDA-MB-231 (RRID:CVCL_0062) and MDA-MB-468 (RRID:CVCL_0419)breast carcinomas (10-12). Pooled donor human umbilical vein endothelial cells (HUVEC, Lonza, cat. CC-2519) and human mesenchymal stem cells (hMSC, Lonza, cat. PT-2501) were purchased from Lonza (Walkersville, MD).
Cell Culture. All cells were maintained in an incubator at 37 degrees C and 5% CO2 with 95% humidity. The PDC lines were cultured according to standard operating procedures established by the NCI PDMR (https://pdmr.cancer.gov). Briefly all PDCs were thawed and cultured in Matrigel-coated flasks prepared with a working solution of 1X Ham's F-12 nutrient mix, without supplementation (Invitrogen, Waltham, MA, cat. 11765054), 100 U/mL penicillin-streptomycin (Invitrogen, cat. 15140122), and 2.5% Matrigel (Corning Inc., Corning, NY, cat. 354248) for the first three passages. […]

[1] = curve of first compound, second compound 0.1 µM
[2] = curve of first compound, second compound 0.316 µM
[3] = curve of first compound, second compound 1 µM
[4] = curve of first compound, second compound 3.16 µM
[5] = curve of first compound, second compound 10 µM

O=C(C=Cc1cccc(S(=O)(=O)Nc2ccccc2)c1)NO + NC1CC1c1ccc(-c2cccc(O)c2)cc1
IC50 [1]: 118 nM
IC50 [2]: 124 nM
IC50 [3]: 81.9 nM
IC50 [4]: 74 nM
IC50 [5]: 78 nM
viability, T/C (second compound 0.1 µM, first compound 0.00949 µM): 90.3%
viability, T/C (second compound 0.1 µM, first compound 0.03 µM): 78.2%
viability, T/C (second compound 0.1 µM, first compound 0.0949 µM): 54.6%
viability, T/C (second compound 0.1 µM, first compound 0.3 µM): 28.7%
viability, T/C (second compound 0.1 µM, first compound 0.949 µM): 11.8%
viability, T/C (second compound 0.1 µM, first compound 3 µM): 2.54%
viability, T/C (second compound 0.316 µM, first compound 0.00949 µM): 89.4%
viability, T/C (second compound 0.316 µM, first compound 0.03 µM): 82.5%
viability, T/C (second compound 0.316 µM, first compound 0.0949 µM): 55.3%
viability, T/C (second compound 0.316 µM, first compound 0.3 µM): 27.7%
viability, T/C (second compound 0.316 µM, first compound 0.949 µM): 13.8%
viability, T/C (second compound 0.316 µM, first compound 3 µM): 2.81%
viability, T/C (second compound 1 µM, first compound 0.00949 µM): 82.7%
viability, T/C (second compound 1 µM, first compound 0.03 µM): 69.6%
viability, T/C (second compound 1 µM, first compound 0.0949 µM): 46.5%
viability, T/C (second compound 1 µM, first compound 0.3 µM): 25.3%
viability, T/C (second compound 1 µM, first compound 0.949 µM): 9.19%
viability, T/C (second compound 1 µM, first compound 3 µM): 2.22%
viability, T/C (second compound 3.16 µM, first compound 0.00949 µM): 82.9%
viability, T/C (second compound 3.16 µM, first compound 0.03 µM): 67.5%
viability, T/C (second compound 3.16 µM, first compound 0.0949 µM): 44.3%
viability, T/C (second compound 3.16 µM, first compound 0.3 µM): 25.9%
viability, T/C (second compound 3.16 µM, first compound 0.949 µM): 10.2%
viability, T/C (second compound 3.16 µM, first compound 3 µM): 2.06%
viability, T/C (second compound 10 µM, first compound 0.00949 µM): 87.9%
viability, T/C (second compound 10 µM, first compound 0.03 µM): 73.9%
viability, T/C (second compound 10 µM, first compound 0.0949 µM): 40.2%
viability, T/C (second compound 10 µM, first compound 0.3 µM): 28.6%
viability, T/C (second compound 10 µM, first compound 0.949 µM): 11.8%
viability, T/C (second compound 10 µM, first compound 3 µM): 2.64%

Nc1ccccc1NC(=O)c1ccc(CNC(=O)OCc2cccnc2)cc1
viability, T/C (compound 0.00949 µM): 102% and 86.1%
viability, T/C (compound 0.03 µM): 81.6% and 80.2%
viability, T/C (compound 0.0949 µM): 63.8% and 59.6%
viability, T/C (compound 0.3 µM): 41.9% and 34.8%
viability, T/C (compound 0.949 µM): 23.9% and 19.3%
viability, T/C (compound 3 µM): 8.2% and 8.35%
IC50 (curve of compound): 195 nM and 153 nM

CC[C@@]1(O)C(=O)OCc2c1cc1n(c2=O)Cc2cc3c(CN(C)C)c(O)ccc3nc2-1 + NC1CC1c1ccc(-c2cccc(O)c2)cc1
IC50 [1]: 3.05 nM
IC50 [2]: 3.4 nM
IC50 [3]: 2.31 nM
IC50 [4]: 2.27 nM
IC50 [5]: 2.32 nM
viability, T/C (second compound 0.1 µM, first compound 0.000316 µM): 96.1%
viability, T/C (second compound 0.1 µM, first compound 0.001 µM): 83.5%
viability, T/C (second compound 0.1 µM, first compound 0.00316 µM): 47.5%
viability, T/C (second compound 0.1 µM, first compound 0.01 µM): 32.3%
viability, T/C (second compound 0.1 µM, first compound 0.0316 µM): 35.6%
viability, T/C (second compound 0.1 µM, first compound 0.1 µM): 18.8%
viability, T/C (second compound 0.316 µM, first compound 0.000316 µM): 102%
viability, T/C (second compound 0.316 µM, first compound 0.001 µM): 87.3%
viability, T/C (second compound 0.316 µM, first compound 0.00316 µM): 48.9%
viability, T/C (second compound 0.316 µM, first compound 0.01 µM): 34.3%
viability, T/C (second compound 0.316 µM, first compound 0.0316 µM): 33%
viability, T/C (second compound 0.316 µM, first compound 0.1 µM): 19.8%
viability, T/C (second compound 1 µM, first compound 0.000316 µM): 101%
viability, T/C (second compound 1 µM, first compound 0.001 µM): 78.3%
viability, T/C (second compound 1 µM, first compound 0.00316 µM): 38.6%
viability, T/C (second compound 1 µM, first compound 0.01 µM): 30.5%
viability, T/C (second compound 1 µM, first compound 0.0316 µM): 34.4%
viability, T/C (second compound 1 µM, first compound 0.1 µM): 18.4%
viability, T/C (second compound 3.16 µM, first compound 0.000316 µM): 88.1%
viability, T/C (second compound 3.16 µM, first compound 0.001 µM): 78.8%
viability, T/C (second compound 3.16 µM, first compound 0.00316 µM): 37.9%
viability, T/C (second compound 3.16 µM, first compound 0.01 µM): 33.1%
viability, T/C (second compound 3.16 µM, first compound 0.0316 µM): 33.4%
viability, T/C (second compound 3.16 µM, first compound 0.1 µM): 18.7%
viability, T/C (second compound 10 µM, first compound 0.000316 µM): 93.3%
viability, T/C (second compound 10 µM, first compound 0.001 µM): 75.6%
viability, T/C (second compound 10 µM, first compound 0.00316 µM): 40.1%
viability, T/C (second compound 10 µM, first compound 0.01 µM): 31.8%
viability, T/C (second compound 10 µM, first compound 0.0316 µM): 37.7%
viability, T/C (second compound 10 µM, first compound 0.1 µM): 20.7%
